Test results taken from patent publication US6121279A, “Substituted 6-phenylphenanthridines” (Byk Gulden Lomberg Chemische Fabrik GmbH, priority 1997, dated 2000).

Test system: PDE 4
Test: Inhibition of PDE 4 activity (method of Bauer and Schwabe, adapted to microtiter plates)
Assay type: biochemical
Conditions: Table A

CCOc1cc2c(cc1OC)C(c1ccc(C(=O)Nc3cccnc3)cc1)=NC1CCCCC21 (mixture of isomers) [Compound 6, (+/-)-cis-9-Ethoxy-8-methoxy-6-(4-pyrid-3-ylamidophenyl)-1,2,3,4,4a,10b-hexahydrophenanthridine]
inhibitory concentration as -log IC50 (mol/l), Inhibition of PDE 4 activity: 8.66

CCOc1cc2c(cc1OC)C(c1ccc(S(N)(=O)=O)cc1)=N[C@H]1CCCC[C@@H]21 (racemic) [Compound 1, (+-)-cis-9-Ethoxy-8-methoxy-6-(4-sulfamoylphenyl)-1,2,3,4,4a,10b-hexahydrophenanthridine]
inhibitory concentration as -log IC50 (mol/l), Inhibition of PDE 4 activity: 8.55

CCCN(CCC)S(=O)(=O)c1ccc(C2=N[C@H]3CCCC[C@H]3c3cc(OCC)c(OC)cc32)cc1 (racemic) [Compound 2, (+/-)-cis-9-Ethoxy-8-methoxy-6-(4-dipropylsulfamoylphenyl)-1,2,3,4,4a,10b-hexahydrophenanthridine]
inhibitory concentration as -log IC50 (mol/l), Inhibition of PDE 4 activity: 9.25

CCOc1cc2c(cc1OC)C(c1ccc(S(=O)(=O)Nc3ccc(C)cc3)cc1)=N[C@H]1CCCC[C@@H]21 (racemic) [Compound 3, (+/-)-cis-9-Ethoxy-8-methoxy-6-(4-p-tolylsulfamoylphenyl)-1,2,3,4,4a,10b-hexahydrophenanthridine]
inhibitory concentration as -log IC50 (mol/l), Inhibition of PDE 4 activity: 9.24

COc1cc2c(cc1OC)[C@@H]1CCCC[C@@H]1N=C2c1ccc(S(=O)(=O)Nc2ccc(C)cc2)cc1 (single isomer, unassigned) [Compound 5, (-)-cis-8,9-Dimethoxy-6-(4-p-tolylsulfamoylphenyl)-1,2,3,4,4a,10b-hexahydrophenanthridine]
inhibitory concentration as -log IC50 (mol/l), Inhibition of PDE 4 activity: 8.30
